According to patent US4847254A, “CNS affecting 5-oxy-3-aminomethyl-dihydro-benzofurans and benzothiophenes” (H. Lundbeck A/S, priority 1987, dated 1989):

Columns and labels:
DA-receptor = experiment: Contralateral circling in rats with unilateral 6-hydroxy-DA (6-OHDA) lesions; for 6-OHDA Contr. Circle. rats (sc) Duration: test concentration or dose not given here; assay type: in vivo, rat (Wistar); settings: 6-OHDA-lesioned rats; for 6-OHDA Contr. Circle. rats (sc) ED50: doses calculated as the free amine; for 6-OHDA Contr. Circle. rats (sc) Duration: duration given instead of ED50
Protocol: Furthermore, the potency of the drug to induce contralateral circling behaviour in 6-hydroxy-DA-lesioned rats was determined. The specificity of this receptor resembles that of the […] DA receptors mediating motility inhibition.
The experiments were made according to published methods, using rats of the Wistar strain.
Therefore, also the ability of a test compound to induce contralateral circling in rats with unilateral 6-hydroxy-DA lesions was evaluated (loc cit.).

DA-autoreceptors = experiment: Inhibition of spontaneous locomotor activity (motility inhibition) in rats; assay type: in vivo, rat (Wistar); settings: doses calculated as the free amine
[1] = test system: postsynaptic DA-receptors; experiment: Reversal of locomotor depression (hypomotility) in reserpine plus alpha-methyl-p-tyrosine pretreated rats; assay type: in vivo, rat (Wistar)
[2] = test system: presynaptic DA-receptors (DA-autoreceptors); settings: cited from earlier work

Row | Compound | 6-OHDA Contr. Circle. rats (sc) ED50 (DA-receptor) [µmol/kg] | Motility Inh. rats (sc) ED50 (DA-autoreceptors) [µmol/kg] | Reserpin α-Mt Rev. rats (sc) ED50 [1] [µmol/kg] | further results
1 | CCCN(CCO)CC1COc2ccc(O)cc21 (centres unmarked) [Lu 24-102, 5-Hydroxy-2,3-dihydro-N-(2-hydroxyethyl)-N-propyl-3-benzofuranmethylamine] | 2.1 | 5.4 | 19 | 
2 | CCCN(CCC)CC1CCc2ccc(O)cc21 (single isomer, unassigned; (-)) [Lu 22-050, (-)-N,N-dipropyl-6-hydroxy-1-indanmethylamine] | 0.45 | 1.3 | 60 | 
3 | CCN(CC)CC1CCc2ccc(O)cc21 (single isomer, unassigned; (+)) [Lu 22-106, (+) N,N-diethyl-6-hydroxy-1-indanmethylamine] | 0.36 | 1.1 | 14 | 
4 | CCCNCC1CCc2ccc(O)cc21 (centres unmarked) [Lu 21-138, 6-Hydroxy-N-propyl-1-indanmethylamine] | 10 | 19 |  | 
5 | CN(C)CC1CCc2ccc(O)cc21 (centres unmarked) [Lu 21-112, N,N-dimethyl-6-hydroxy-1-indanmethylamine] | 0.95 | 5.7 | 12 | 
6 | CCCN(CCC)CC1CCc2ccc(O)cc21 (centres unmarked) [Lu 21-051, N,N-dipropyl-6-hydroxy-1-indanmethylamine] | 0.35 | 0.45 |  | Reserpin α-Mt Rev. rats (sc) % at 5 μmol/kg [1]: 44%
7 | CCCN(CCC)CC1CCc2ccc(OC(=O)c3ccccc3Cl)cc21 (centres unmarked) [Lu 24-031, 6-(2-chlorobenzoyloxy)-N,N-dipropyl-1-indanmethylamine] |  |  |  | 6-OHDA Contr. Circle. rats (sc) Duration (DA-receptor): 4 h
8 | CCCN(CCC)CC1CCc2ccc(OC)cc21 (centres unmarked) [Lu 21-097, N,N-dipropyl-6-methoxy-1-indanmethylamine] | > 14 | > 14 |  | 
9 | CCCN(CCc1cccs1)CC1COc2ccc(O)cc21 (centres unmarked) [Lu 24-155, 5-Hydroxy-2,3-dihydro-N-propyl-N-(2-thienyl-2-ethyl)-3-benzofuranmethylamine] | 1.2 | 7.0 | 28 | 
10 | CCCN(CCC)CC1CCc2ccc(OC(=O)c3ccccc3OC(C)=O)cc21 (centres unmarked) [Lu 24-032, 6-(2-acetyloxybenzoyloxy)-N,N-dipropyl-1-indanmethylamine] |  |  |  | 6-OHDA Contr. Circle. rats (sc) Duration (DA-receptor): 4 h
11 | CCCN(CCC)CC1COc2ccc(O)cc21 (single isomer, unassigned; (-)) [Lu 24-121, (-)-5-hydroxy-2,3-dihydro-N,N-dipropyl-3-benzofuranmethylamine] | 1.7 | 5.4 | 86 | 
12 | CCCN(CCC)CC1CCc2ccc(OC(=O)c3ccccc3OC)cc21 (centres unmarked) [Lu 24-030, 6-(2-methoxybenzoyloxy)-N,N-dipropyl-1-indanmethylamine] |  |  |  | 6-OHDA Contr. Circle. rats (sc) Duration (DA-receptor): 4 h
13 | CCCN(CCC)CC1COc2ccc(O)cc21 (single isomer, unassigned; (+)) [Lu 24-122, (+)-5-hydroxy-2,3-dihydro-N,N-dipropyl-3-benzofuranmethylamine] | 0.16 | 0.81 |  | 
14 | CCCN(CCC)CC1CCc2ccc(OC(=O)c3ccccc3C)cc21 (centres unmarked) [Lu 24-028] |  |  |  | 6-OHDA Contr. Circle. rats (sc) Duration (DA-receptor): 18 h
15 | CCCN(C)CC1COc2ccc(O)cc21 (single isomer, unassigned; (-)) [Lu 25-021, (-)-5-hydroxy-2,3-dihydro-N-methyl-N-propyl-3-benzofuranmethylamine] | 5.2 | 5.4 | 290 | 
16 | CCN(CC)CC1CCc2ccc(OC(=O)C(C)(C)C)cc21 (centres unmarked) [Lu 23-020, 6-pivaloyloxy-N,N-diethyl-1-indanmethylamine] | 0.33 | 0.84 |  | 
17 | CCCN(CCC)CC1COc2ccc(OC(=O)c3ccccc3C)cc21 (centres unmarked) [Lu 24-074, 5-(2-Methylbenzoyloxy)-2,3-dihydro-N,N-dipropyl-3-benzofuranmethylamine] |  |  |  | 6-OHDA Contr. Circle. rats (sc) Duration (DA-receptor): 15 h
18 | CCCN(CCC)CC1COc2ccc(O)cc21 (centres unmarked) [Lu 23-130, 5-Hydroxy-2,3-dihydro-N,N-dipropyl-3-benzofuranmethylamine] | 0.35 | 0.5 to 2 | 3.4 | 

Row | Compound | 6-OHDA Contr. Circle. rats (sc) ED50 (DA-receptor) [µmol/kg] | Motility Inh. rats (sc) ED50 (DA-autoreceptors) [µmol/kg] | Reserpin α-Mt Rev. rats (sc) ED50 [1] [µmol/kg] | further results
19 | CCN(CC)CC1COc2ccc(O)cc21 (centres unmarked) [Lu 24-088, 5-Hydroxy-2,3-dihydro-N,N-diethyl-3-benzofuranmethylamine] | 1.2 | 1.7 |  | Reserpin α-Mt Rev. rats (sc) % at 5 μmol/kg [1]: 13%
20 | CCCN(CCc1ccccc1)CC1COc2ccc(O)cc21 (centres unmarked) [Lu 24-084, 5-Hydroxy-2,3-dihydro-N-(2-phenylethyl)-N-propyl-3-benzofuranmethylamine] | 0.94 | 1.9 | 11 | 
21 | CCCN(CCC)CC1CSc2ccc(O)cc21 (centres unmarked) [Lu 24-100, 5-Hydroxy-2,3-dihydroxy-N,N-dipropyl-3-benzothiophenmethylamine] | 4.6 | 3.0 | 20 | 
22 | CCCN(C)CC1COc2ccc(O)cc21 (centres unmarked) [Lu 24-103, 5-Hydroxy-2,3-dihydro-N-methyl-N-propyl-3-benzofuranmethylamine] | 1.2 | 4.5 | 290 | 
23 | CCCN(C)CC1CCc2ccc(O)cc21 (centres unmarked) [Lu 25-009, 6-Hydroxy-N-methyl-N-propyl-1-indanmethylamine] | 0.82 | 0.65 | 66 | 
24 | CCCN(CCC)CC1CCc2ccc(OC(=O)c3c(F)cccc3F)cc21 (centres unmarked) [Lu 24-029, 6-(2,6-Difluorbenzoyloxy)-N,N-dipropyl-1-indanmethylamine] |  |  |  | 6-OHDA Contr. Circle. rats (sc) Duration (DA-receptor): 4 h
25 | CCCN(C)CC1COc2ccc(O)cc21 (single isomer, unassigned; (+)) [Lu 25-020, (+)-5-hydroxy-2,3-dihydro-N-methyl-N-propyl-3-benzofuranmethylamine] | 0.95 | 4.1 | 65 | 
26 | CCN(CC)CC1CCc2ccc(O)cc21 (centres unmarked) [Lu 21-096, N,N-diethyl-6-hydroxy-1-indanmethylamine] | 0.19 | 1.0 |  | Reserpin α-Mt Rev. rats (sc) % at 5 μmol/kg [1]: 50%
27 | CCCN(CCC)CC1COc2ccc(OC(=O)c3ccccc3N)cc21 (centres unmarked) [Lu 25-165, 5-(2-aminobenzoyloxy)-2,3-dihydro-N,N-dipropyl-3-benzofuranmethylamine] |  |  |  | 6-OHDA Contr. Circle. rats (sc) Duration (DA-receptor): > 6 h
28 | CCCCN(CCCC)CC1CCc2ccc(O)cc21 (centres unmarked) [Lu 22-028, N,N-Dibutyl-6-hydroxy-1-indanmethylamine] | > 14 | 13 |  | 
29 | CCN(CC)CC1CCc2ccc(O)cc21 (single isomer, unassigned; (-)) [Lu 22-105, (-) N,N-diethyl-6-hydroxy-1-indanmethylamine] | 1.2 | 0.87 | 120 | 
30 | CCCN(CCC)CC1COc2ccc(OC(=O)C(C)(C)C)cc21 (centres unmarked) [Lu 24-042, 5-Pivaloyloxy-2,3-dihydro-N,N-dipropyl-3-benzofuranmethylamine] | 0.40 |  |  | 
31 | CCCN(CCC)CC1CCc2ccc(OC(=O)c3ccccc3F)cc21 (centres unmarked) [Lu 24-033, 6-(2-fluorbenzoyloxy)-N,N-dipropyl-1-indanmethylamine] |  |  |  | 6-OHDA Contr. Circle. rats (sc) Duration (DA-receptor): 4 h
32 | CCCN(CCc1ccccc1)CC1CCc2ccc(O)cc21 (centres unmarked) [Lu 21-113, 6-Hydroxy-N-propyl-N-(2-phenylethyl)-1-indanmethylamine] | 0.12 | 0.51 |  | Reserpin α-Mt Rev. rats (sc) % at 5 μmol/kg [1]: 63%
33 | CCCN(CCC)CC1COc2ccc(OC(=O)NC(C)C)cc21 (centres unmarked) [Lu 25-158, 5-isopropylaminocarbonyloxy-2,3-dihydro-N,N-dipropyl-3-benzofuranmethylamine] |  |  |  | 6-OHDA Contr. Circle. rats (sc) Duration (DA-receptor): 4 h
34 | CN1CCc2cccc3c2[C@H]1Cc1ccc(O)c(O)c1-3 [Apomorphine, apomorphine, reference compound] | 0.06 | 0.64 | 0.27 | clinical success at low doses ([2]; low doses, patients with schizophrenia and tardive dyskinesias): used with some success; selectivity of action at DA autoreceptors vs postsynaptic DA receptors ([2]; postsynaptic DA receptors stimulated by slightly higher doses): no selective action at DA autoreceptors
35 | CCN(CC)CC1CCc2ccc(OC(=O)Nc3ccc(C(C)C)cc3)cc21 (centres unmarked) [Lu 25-177, 6-(4-isopropylphenylaminocarbonyloxy)-N,N-diethyl-1-indanmethylamine] |  |  |  | 6-OHDA Contr. Circle. rats (sc) Duration (DA-receptor): > 6 h
36 | CCCN(CCC)CC1CCc2ccc(O)cc21 (single isomer, unassigned; (-)) [Lu 22-049, (-)-N,N-dipropyl-6-hydroxy-1-indanmethylamine] | 0.18 | 0.26 | 4.5 | 
